# According to the METLIN SMRT retention time set (Domingo-Almenara et al. 2019):
# Assay: gradient 5% acetonitrile 3 min, to 50% in 2 min, to 85% in 15 min, held 3 min, 100 µL/min
# Settings: column: Zorbax Extend-C18 2.1 x 50 mm; eluents: water / acetonitrile, 0.1% formic acid
# Procedure, shortened: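 A Zorbax Extend-C18 column (2.1 × 50 mm, 1.8 μm) run at 100 μL/min with water and acetonitrile, both containing 0.1% formic acid, separated mixtures of ~100 pure standards. The HPLC was coupled to a quadrupole time-of-flight mass spectrometer operated in positive and negative ionization mode, with dead and dwell volumes of 40 μL and 900 μL. Each retention time was taken from a computationally picked adduct peak that was then manually inspected.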
row,SMILES,RP-LC retention time [s]
1,CN1CCN(CCCNC(=O)C2CCN(C(=O)c3ccc(-n4ccc5ccccc54)s3)CC2)CC1,630
2,O=C(CSc1ccc(F)cc1)NCC1CCN(Cc2cccs2)CC1,566
3,CCCCn1cc(S(=O)(=O)Nc2ccc(C)cc2)c2cccnc21,943
4,CCCn1cc(CCNC(=O)c2c(F)cccc2Cl)c2cccnc21,764
5,CN(C)c1ccc(/C=C(\C#N)C(=O)c2ccccc2)cc1,1100
6,CCc1c(C)nc2nc(-c3ccccc3)nn2c1NCc1ccc(C)cc1,996
7,NC(=O)c1nsc2c(=O)n(CC(=O)NCc3ccco3)cnc12,589
8,CN1C(=O)C2CCCCN2c2ccc(C(=O)N3CCN(c4cccc(Cl)c4)CC3)cc21 (stereo not given),1060
9,COc1ccc(OC)c(NC(=O)CCc2c(-c3ccc(F)cc3)nc3ccccn23)c1,665
10,CCCNC(=O)N(C1CCOCC1)C1CCN(C(=O)c2nn(C)c3ccccc23)CC1,1150
11,CCCCN(C)C(=O)Cn1c(=O)c(S(=O)(=O)c2ccccc2)cc2ccccc21,893
12,Cc1ccc(-c2cn3c(n2)N(C(=O)c2cnn4cccnc24)CCC3)cc1,613
13,COc1ccccc1-c1noc(C2CCCN2C(=O)Nc2ccccc2C(F)(F)F)n1 (stereo not given),933
14,COc1cccc(CC(=O)NCC(=O)Nc2nc3ccccc3[nH]2)c1,618
15,Cc1ccc(CNS(=O)(=O)c2ccc3c(c2)C(=O)N(C)c2ncccc2O3)cc1C,986
16,CCC(=O)Nc1ccc(N(C)CCc2c(C)nn(C)c2C)c(C(=O)O)c1,572
17,CCCCN1CCN(S(=O)(=O)c2cc(-c3nnc(C(C)C)o3)co2)CC1,652
18,CCc1ccc(-c2noc(CN3C(=O)COc4cc(Cl)ccc43)n2)cc1,1240
19,Cc1cccc(-c2noc(CN3N=NC4C(=O)N(c5ccccc5)C(=O)C43)n2)c1 (stereo not given),989
20,Clc1ccccc1-c1nc(-c2ccnc(N3CCOCC3)c2)no1,994
21,CCCN1CCN(c2cc(C(=O)O)c3cc(NS(=O)(=O)c4ccccc4C)ccc3n2)CC1,605
22,CCC1CN2C=NC(N3CCN(C(=O)Nc4ccc(OC)c(Cl)c4)CC3)=CC2=N1 (stereo not given),807
23,Fc1ccc(CN2CCC[C@H]2c2nc(C3CCOCC3)n[nH]2)c(Cl)c1,586

row,SMILES,RP-LC retention time [s]
1,CCN1C(=O)c2cccnc2Sc2cc(NC(=O)c3ccc(C)cc3)ccc21,859
2,O=C(NCC1CCCO1)c1cn2ccccc2n1 (stereo not given),565
3,CCOc1ccccc1CNC(=O)C1CCCN(c2ccc(=O)n(-c3cccc(Cl)c3)n2)C1 (stereo not given),968
4,CCN1C(=O)C2(CCN(S(=O)(=O)c3cccs3)CC2)c2ccccc21,983
5,O=C(NCCN1CCOCC1)c1cc2sccc2n1Cc1ccc(Cl)cc1,713
6,CCOC(=O)CSc1nnc(-c2nnc(SCC(=O)OCC)n2CC)n1CC,758
7,O=C(NC1CCCCC1)c1nc(-c2ccnc(N3CCCCC3)c2)no1,804
8,CCN(CC)c1ccc(-c2noc(CN3CCN(c4ccccn4)CC3)n2)cn1,575
9,Cc1ccc(NC(=O)C2CCN(S(C)(=O)=O)c3cc(C)ccc3O2)cc1 (stereo not given),976
10,O=C(Nc1ccc(Cl)c(Cl)c1)Nc1ccc([N+](=O)[O-])cn1,1100
11,CCOc1ccc(NC(=O)c2cnc3c(c2)c(=O)n(C)c(=O)n3C)cc1,704
12,O=C(NC1CCCC1)c1cn(Cc2ccccc2)cc2c(=O)n(-c3ccccc3)nc1-2,1060
13,CC(C)n1c(CCNC(=O)c2cccc(Cl)c2)nc2cccnc21,701
14,COc1ccc(C)cc1NC(=O)N1CCC(c2cc(N)on2)CC1,720
15,COc1ccc(-c2nc3cnccn3c2NCCC(=O)N2CCN(C(C)C)CC2)cc1,565
16,COc1ccc(NC(=O)CSc2nc3c(cc2C#N)C(=O)CC(C)(C)C3)c(OC)c1,892
17,COc1ccc(-c2cc(N3CCC(NC(=O)c4ccc(F)cc4F)C3)n[nH]2)cc1 (stereo not given),696
18,CCCNC(=O)C1CCN(S(=O)(=O)c2cc(C(=O)N(C)C)cs2)CC1,658
19,Cc1cc(Cl)ccc1OCc1nc(-c2ccc3c(c2)nnn3CCC(=O)N2CCCCCC2)no1,1180
20,CCN(CC)C(=O)N1CCO[C@@H](COc2ccccn2)[C@@H]1c1ccccc1,898
21,COc1ccc(C2C(C(=O)Nc3ccc4c(c3)OCO4)c3cc(OC)c(OC)cc3C(=O)N2C)cc1 (stereo not given),798
22,CCC(C(=O)NCc1ccc2c(c1)ncn2CC)c1ccccc1 (stereo not given),660
